Laboratory results reported in US7211561B2, “Method for inducing selective cell death of malignant cells by activation of calcium-activated potassium channels (KCa)” (Cedars-Sinai Medical Center, priority 2001, dated 2007).
Structures can show the parent of a compound that is named as a salt.

Experiments:
[1] = system: PTK activity in RG2 cell lysate; experiment: Protein tyrosine kinase (PTK) assay; assay type: biochemical, rat; settings: 1–50 μM (FIG. 10)
Procedure: A PTK assay kit (The Oncogene Research Products, Boston, Mass.) was used to determine the presence and relative amounts of protein kinase activity in tissue cytosols and cell extracts. Briefly, 1×10^4 RG2 cells seeded in a 50-mL culture flask, and allowed to achieve confluency to form a monolayer at 37° C. in a CO2 incubator.
Briefly, RG2 cells were harvested after trypsinization, and cells were pelleted by centrifugation. Cells were resuspended with extraction buffer (20 mM Tris, pH 7.4, 50 mM NaCl, 1 mM EDTA, 1 mM EGTA, 0.2 mM PMSF, 1 μg/mL pepstatin, 0.5 μg/mL leupetin, 0.2 mM Na3VO4, 5 mM mercaptoethanol, 0.1% Triton X-100), and cells were lysed using a cell homogenizer. After centrifugation, supernatant was separated from the pellet for PTK assay. The supernatant was treated with superoxide dismutase. Pervanadate (100 mM) was used in the PTK assay to inhibit […] activity, and protein concentration was determined by Lowry's method using a Bio-Rad protein assay kit. […]
Assay for PTK activity in RG2 cell-lysates was then performed according to the protocol supplied by the PTK assay kit's manufacturer. After adding the stop solution, absorbance measured in each well at 450 nm using a Spectramax Plus (Molecular Devices, Sunnyvale, Calif.).

[2] = system: rat and human malignant cells studied, as well as normal cells; experiment: Cell proliferation assay (WST-1, OD 450 nm), all cell lines; assay type: cell-based; settings: data not shown
Procedure: (§1) Primary cell lines were prepared from human gliomas (glioblastoma multiforme [GBM] or astrocytoma) or established rat glioma cell lines (RG2, C6 and 9L) were used. Cultured human normal cell lines, brain microvessel endothelial cells (HBMVEC), or fetal astrocytes were used.
(§2) Cells (5×10^4 cells) were cultured in each well of 96-well microtiter culture plates and were allowed to achieve confluency to form a monolayer of cells in each well. For dose response studies cells were incubated with different concentrations (1–100 μg/mL) of NS-1619 or minoxidil sulfate for 4 hours at 37° C. in a CO2 (5%) incubator. Cells washed twice carefully with respective medium, and allowed to incubate overnight at 37° C. under 5% CO2. The following day, cells were incubated with WST-1 reagent (Boehringer Mannheim) at 37° C. in a CO2 (5%) incubator for 60–90 minutes, and optical density at 450 nm was measured with a 96-well plate reader. The magnitude of OD indicated the number of viable cells, greater the OD, higher the number of viable cells, correlated a standard curve of cell numbers.

malignant RG2 cells = experiment: In vitro apoptosis assay (Annexin V-FITC/propidium iodide, FACS); assay type: cell-based, rat; settings: 50 μg/mL (FIG. 6A)
Source text: (§3) The changes in plasma membrane are one of the earliest events in cell death. In apoptotic cells the membrane phospholipid phosphatidylserine (PS) is translocated from the inner to the outer leaflet of the cell membrane in the early phases of apoptosis. Annexin V is a Ca^2+-dependent, phospholipid-binding protein that binds to PS with high affinity. Consequently, Annexin V (PharMingen) conjugated to a label, such as fluorescein isothiocyanate (FITC) or biotin, serves as a sensitive probe for flow cytometry analysis of cells that are undergoing apoptosis. […] (PharMingen; Vermes, I. et al., A novel assay for apoptosis. Flow cytometric detection of phosphatidylserine expression on early apoptotic cells using fluorescein labelled Annexin V, J. Immunol. Meth. 184:39–51 [1995]). Concurrently, propidium iodide is typically used as a standard flow cytometric viability probe, because the intact cell membranes of viable cells exclude propidium iodide, whereas the cell membranes of dead and damaged cells are permeable to propidium iodide. Cells that stain positive for Annexin V and negative for propidium iodide are undergoing apoptosis; cells that stain positive for both Annexin V and propidium iodide are either at the end stage of apoptosis, are undergoing necrosis, or are already dead; and cells that stain negative for both Annexin V-biotin and propidium iodide are alive and not undergoing measurable apoptosis. Briefly, the cells were washed twice with cold PBS and then resuspended in 1× binding buffer (10 mM HEPES/NaOH, pH 7.4, 140 mM NaCl, 2.5 mM CaCl2; 4° C.) at a concentration of about 1×10^6 cells/mL. A 100-μL aliquot of cell suspension was transferred to 5-mL culture tubes, and 2.5 μL of Annexin V-FITC and 2.5-μL of propidium iodide (PharMingen) were added to each tube. The cell suspensions were gently mixed and incubated for 15 min at room temperature in the dark, after which 400 μL of binding buffer was added to each tube of cells. The cells were then washed once with 1×binding buffer. Analysis by flow cytometry was then conducted immediately, and no later than within one hour. The resulting analytic FACS graphs were typically divided into four quadrants wherein the upper right (UR) quadrant represented the number of necrotic cells; the lower left (LL) quadrant represented the number of viable cells; the lower right (LR) quadrant represented the number of apoptotic cells; and the upper left (UL) represented cells of an intermediate category, which generally represents cell debris and DNA fragments. The percentage of gated events in each quadrant was used to determine the total percentage of apoptotic and necrotic cells in each cell suspension.

malignant 9L cells = experiment: as above; assay type: cell-based, rat; settings: 50 μg/mL (FIG. 6E)
Source text: as §3

malignant C6 cells = experiment: as above; assay type: cell-based, rat; settings: 50 μg/mL (FIG. 6C)
Source text: as §3

primary human GBM cells = experiment: as above; assay type: cell-based; settings: 50 μg/mL (FIG. 7A)
Source text: (§4) The changes in plasma membrane are one of the earliest events in cell death. In apoptotic cells the membrane phospholipid phosphatidylserine (PS) is translocated from the inner to the outer leaflet of the cell membrane in the early phases of apoptosis. Annexin V is a Ca^2+-dependent, phospholipid-binding protein that binds to PS with high affinity. Consequently, Annexin V (PharMingen) conjugated to a label, such as fluorescein isothiocyanate (FITC) or biotin, serves as a sensitive probe for flow cytometry analysis of cells that are undergoing apoptosis. […] (PharMingen; Vermes, I. et al., A novel assay for apoptosis. Flow cytometric detection of phosphatidylserine expression on early apoptotic cells using fluorescein labelled Annexin V, J. Immunol. Meth. 184:39–51 [1995]). Concurrently, propidium iodide is typically used as a standard flow cytometric viability probe, because the intact cell membranes of viable cells exclude propidium iodide, whereas the cell membranes of dead and damaged cells are permeable to propidium iodide. […]

non-malignant HBMVEC = experiment: as above; assay type: cell-based, human; settings: 50 μg/mL (FIG. 7C)
Procedure: (§5) Human glioma cells (U-87) and HBMVECells were seeded into a 25-mL tissue-culture flask. After 24 h (about 60–70% confluencey), cells were treated with either […] (50 or 100 micrograms/mL) or staurosporine (positive control; 5 μM), a known inducer of apoptosis (Tamaoki, T., et al., Staurosporine, a potent inhibitor of phospholipid/Ca^++ dependent protein kinase, Biochem. Biophys. Res. Commun. 135: 397–402 [1986]; Matsumoto, H., and Sasaki, Y., Staurosporine, a protein kinase C inhibitor interferes with proliferation of arterial smooth muscle cells, Biochem. Biophys. Res. Commun. 158:105–109 [1989]). U-87 cells were returned to the CO2 incubator and incubated overnight. The following day, cells were washed twice with fresh growth medium and cells prepared for FACS analysis as described hereinbelow.
The changes in plasma membrane are one of the earliest events in cell death. In apoptotic cells the membrane phospholipid phosphatidylserine (PS) is translocated from the inner to the outer leaflet of the cell membrane in the early phases of apoptosis. Annexin V is a Ca^2+-dependent, phospholipid-binding protein that binds to PS with high affinity. Consequently, Annexin V (PharMingen) conjugated to a label, such as fluorescein isothiocyanate (FITC) or biotin, serves as a sensitive probe for flow cytometry analysis of cells that are undergoing apoptosis. […]

[3] = system: implanted RG2 glioma tumor in Wistar rats; experiment: In vivo apoptosis, intracarotid infusion, implanted tumor tissue (FACS); parameters: species or system rat; settings: for apoptotic cells / necrotic cells / apoptosis / necrosis: RG2 tumor
Source text: as §3
A rat tumor model, which consisted of intracranially implanted RG2 cells (rat glioma cell line) in Wistar rats, was employed to investigate whether any of several potassium channel activators induce selective apoptosis of tumor cells in vivo.
The techniques for RG2 cell propagation and maintenance in tissue culture have been described (Sugita, M. and Black, K. L., Cyclic GMP-specific phosphodiesterase inhibition and intracarotid bradykinin infusion enhances permeability into brain tumors, Cancer Res. 58(5):914–20 [1998]; Inamura et al. [1994]; Nakano, S. et al., Increased brain tumor microvessel permeability after intracarotid bradykinin infusion is mediated by nitric oxide, Cancer Res. 56(17):4027–31 [1996]). Briefly, RG2 cells derived from a rat glioma are kept frozen until use, then are thawed and maintained in a monolayer culture in F12 medium with 10% calf serum.
The Wistar rats (approximately 140–160 g body weight) were anesthetized with intra-peritoneal ketamine (50 mg/kg), and glial cells (1×10^5) were implanted into the right hemisphere, but not the contralateral hemisphere, by intracerebral injection suspended in 5 μL F12 medium (1–2% methylcellulose) by a Hamilton syringe. The implantation coordinates were 3-mm lateral to the bregma and 4.5 mm deep to the dural surface. […]

[4] = system: primary human astrocytoma cell line; experiment: Cell proliferation assay (WST-1, OD 450 nm); assay type: cell-based; settings: 1–100 μg/mL, 4 hours, dose-dependent (FIG. 2)
Procedure: as §1, §2

RG2 rat glioma cells = experiment: Cell proliferation assay (WST-1, OD 450 nm); assay type: cell-based
Procedure: as §1, §2

9L rat glioma cells = experiment: Cell proliferation assay (WST-1, OD 450 nm); assay type: cell-based; settings: 1–100 μg/mL, 4 hours, dose-dependent (FIG. 1)
Procedure: as §1, §2

C6 rat glioma cells = experiment: Cell proliferation assay (WST-1, OD 450 nm); assay type: cell-based; settings: 1–100 μg/mL, 4 hours, dose-dependent (FIG. 1)
Procedure: as §1, §2

[5] = system: human normal brain microvessel endothelial cells (HBMVEC); experiment: Cell proliferation assay (WST-1, OD 450 nm); assay type: cell-based
Procedure: as §1, §2

[6] = system: primary human GBM glioma cell line; experiment: Cell proliferation assay (WST-1, OD 450 nm); assay type: cell-based
Procedure: as §1, §2

[7] = system: human normal fetal astrocytes (HFA); experiment: Cell proliferation assay (WST-1, OD 450 nm); assay type: cell-based
Procedure: as §1, §2

U87 human glioma cells = experiment: In vitro apoptosis assay (Annexin V-FITC/propidium iodide, FACS); assay type: cell-based
Procedure: as §5
as §3, with “The cells were then washed once with 1×binding buffer. Analysis by flow cytometry was then conducted immediately, and no later than within one hour. The resulting analytic FACS graphs were typically divided into four quadrants wherein the upper right (UR) quadrant represented the number of necrotic cells; the lower left (LL) quadrant represented the number of viable cells; the lower right (LR) quadrant represented the number of apoptotic cells; and the upper left (UL) represented cells of an intermediate category, which generally represents cell debris and DNA fragments. The percentage of gated events in each quadrant was used to determine the total percentage of apoptotic and necrotic cells in each cell suspension.” left out

Solubility in water = assay type: physicochemical
Source text: The skilled practitioner is cautious in regulating the final concentration of solvent in the infusion solution to avoid solvent-related toxicity. For example, a final ethanol concentration in an infusion solution up to 5–10% (v/v) is tolerated by most mammalian subjects with negligible toxicity.

[8] = system: contralateral normal brain tissue of Wistar rats with implanted RG2 tumor; experiment: In vivo apoptosis, intracarotid infusion, contralateral tissue (FACS); settings: 20 μg/kg body mass bolus, positive control (FIG. 8J)
Source text: as §4

[9] = 50 μg/kg body mass, two consecutive daily doses, intracarotid (FIG. 8C)
[10] = 100 μg/kg body mass, three consecutive daily bolus doses (FIG. 9C)
[11] = 100 μg/kg body mass/day for two days, another rat (FIG. 8G)
[12] = 100 μg/kg body mass/day for two days, one rat (FIG. 8E)
[13] = 20 μg/kg body mass bolus, positive control (FIG. 8I)
[14] = 5 μM, positive control (FIG. 5C)

CC(C)[C@@H]1NC(=O)[C@H](C)OC(=O)[C@@H](C(C)C)NC(=O)[C@@H](C(C)C)OC(=O)[C@H](C(C)C)NC(=O)[C@H](C)OC(=O)[C@@H](C(C)C)NC(=O)[C@@H](C(C)C)OC(=O)[C@H](C(C)C)NC(=O)[C@H](C)OC(=O)[C@@H](C(C)C)NC(=O)[C@@H](C(C)C)OC1=O [Valinomycin]
PTK activity [1]: inhibited PTK activity in RG2 cell lysate in a dose-dependent manner

Nc1cc(N2CCCCC2)nc(N)[n+]1OS(=O)(=O)[O-] [minoxidil sulfate]
sensitivity (cell proliferation) [2]: insensitive

O=c1[nH]c2cc(C(F)(F)F)ccc2n1-c1cc(C(F)(F)F)ccc1O [NS-1619, 1,3-dihydro-1-[2-hydroxy-5-(trifluoromethyl)phenyl]-5-(trifluoromethyl)-2H-benzimidazol-2-one]
PTK activity [1]: did not significantly affect PTK activity
apoptosis (malignant RG2 cells): 29%
necrosis (malignant RG2 cells): 29%
apoptotic cells (malignant 9L cells): 42%
necrotic cells (malignant 9L cells): 32%
apoptotic cells (malignant C6 cells): 25%
necrotic cells (malignant C6 cells): 35%
apoptosis (primary human GBM cells): 24%
necrosis (primary human GBM cells): 49%
apoptosis (non-malignant HBMVEC): 4%
induction of necrosis (non-malignant HBMVEC): did not significantly induce
apoptotic cells [3, 9]: 28%
necrotic cells [3, 9]: 24%
apoptosis [3, 10]: 55%
necrosis [3, 10]: 9%
apoptosis [3, 11]: 34%
necrosis [3, 11]: 9%
apoptosis [3, 12]: 44%
necrosis [3, 12]: 15%
cell death in tumor tissue ([3]; infusion for two or three consecutive days at up to 100 μg/kg body mass): inducing a selective cell death in tumor tissue
cell proliferation [4]: significantly blocked cell proliferation
cell death (RG2 rat glioma cells; 50 μg/mL (FIG. 3)): 70%
cell proliferation (RG2 rat glioma cells; 1–100 μg/mL, 4 hours, dose-dependent (FIG. 1)): significantly blocks cell proliferation
cell proliferation (9L rat glioma cells): significantly blocks cell proliferation
cell proliferation (C6 rat glioma cells): significantly blocks cell proliferation
sensitivity (cell death) ([5]; HBMVEC, 50 μg/mL (FIG. 4)): insensitive
cell proliferation ([5]; normal HBMVEC, 1–100 μg/mL, 4 hours (FIG. 2)): without affecting
cell death ([6]; 50 μg/mL (FIG. 4)): 90%
cell proliferation ([6]; 1–100 μg/mL, 4 hours, dose-dependent (FIG. 2)): significantly blocked cell proliferation
sensitivity (cell death) ([7]; HFA, 50 μg/mL (FIG. 4)): insensitive
cell proliferation ([7]; normal HFA, 1–100 μg/mL, 4 hours (FIG. 2)): without affecting
apoptotic cells (U87 human glioma cells; 50 μg/mL): 21%
necrotic cells (U87 human glioma cells; 50 μg/mL): 14%
solubility in water (Solubility in water): not easily dissolved in water

CN[C@@H]1C[C@H]2O[C@@](C)([C@@H]1OC)n1c3ccccc3c3c4c(c5c6ccccc6n2c5c31)C(=O)NC4 [staurosporin]
apoptotic cells [3, 13]: 35%
necrotic cells [3, 13]: 17%
apoptotic cells (U87 human glioma cells; [14]): 31%
necrotic cells (U87 human glioma cells; [14]): 27%
apoptotic cells [8]: 5%
necrotic cells [8]: 11%
